According to patent US7008630B2, “Lipochroman-6 as NO-synthase inhibitor and uses” (L' Oreal, priority 2000, dated 2006):

Target: T1, inducible NO-synthase (NO-synthase 2) (Homo sapiens, UniProt P35228)
T1 construct: positive control (induction of the enzyme): mixtures of γ-interferon (1 000 U/ml) and interleukin-1β (100 U/ml); endogenous in cells
Assay: Activity on inducible NO-synthase: decrease in nitrate and nitrite concentration after stimulation of NO-synthase 2 (test of Heck et al.)
Format: cell-based
Conditions: for % inhibition: induction with γ-interferon 1 000 U/ml and interleukin-1β 100 U/ml, nitrites and nitrates measured
Description: The activity of lipochroman-6 on inducible NO-synthase was evaluated in the test described by Heck et al. (J. B. C., Vol. 267, No. 30, 21277–21280, Oct. 25, 1992).
In order to determine the activity of the product to be tested, the amount of stable NO reaction products (nitrites and nitrates) is measured using the nitric calorimetric assay kit sold by the company Boehringer under the reference 1756.28.
The lipochroman-6 was tested at the concentrations of 0.005% and 0.01% (weight/volume) in ethanol.

T1 sequence (P35228 whole entry, species assumed): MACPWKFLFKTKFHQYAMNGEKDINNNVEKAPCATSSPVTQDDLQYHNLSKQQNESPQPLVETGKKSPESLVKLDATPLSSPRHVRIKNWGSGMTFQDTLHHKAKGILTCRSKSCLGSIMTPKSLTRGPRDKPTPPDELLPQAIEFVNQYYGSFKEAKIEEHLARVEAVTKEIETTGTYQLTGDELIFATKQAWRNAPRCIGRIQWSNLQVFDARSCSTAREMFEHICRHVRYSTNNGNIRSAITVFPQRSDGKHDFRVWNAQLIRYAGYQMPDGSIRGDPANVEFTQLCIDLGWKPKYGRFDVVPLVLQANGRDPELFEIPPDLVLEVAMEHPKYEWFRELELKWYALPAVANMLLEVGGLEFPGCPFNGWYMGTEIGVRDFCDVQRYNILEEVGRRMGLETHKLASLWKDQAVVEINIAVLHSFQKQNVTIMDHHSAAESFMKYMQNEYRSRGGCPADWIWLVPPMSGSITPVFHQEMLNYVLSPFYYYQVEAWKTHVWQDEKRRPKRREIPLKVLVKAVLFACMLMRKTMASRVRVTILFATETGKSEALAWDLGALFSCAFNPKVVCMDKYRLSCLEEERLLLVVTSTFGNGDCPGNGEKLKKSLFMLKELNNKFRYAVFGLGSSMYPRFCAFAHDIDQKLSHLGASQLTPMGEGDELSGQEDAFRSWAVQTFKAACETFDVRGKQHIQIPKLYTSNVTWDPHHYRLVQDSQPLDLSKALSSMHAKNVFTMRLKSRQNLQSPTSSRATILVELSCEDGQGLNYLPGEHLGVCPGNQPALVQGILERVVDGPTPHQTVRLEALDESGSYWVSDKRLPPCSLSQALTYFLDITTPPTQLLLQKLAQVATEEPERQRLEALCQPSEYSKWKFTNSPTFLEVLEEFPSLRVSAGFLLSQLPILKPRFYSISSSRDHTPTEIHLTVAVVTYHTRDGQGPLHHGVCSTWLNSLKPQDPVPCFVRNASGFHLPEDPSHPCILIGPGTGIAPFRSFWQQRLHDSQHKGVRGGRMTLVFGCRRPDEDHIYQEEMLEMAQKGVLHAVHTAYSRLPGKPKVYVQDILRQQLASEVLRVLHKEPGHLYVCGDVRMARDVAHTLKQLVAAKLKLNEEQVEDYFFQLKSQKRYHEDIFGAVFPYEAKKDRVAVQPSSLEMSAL

- effect on inducible NO-synthase (in words): inhibitory effect
- % inhibition (lipochroman-6 at 0.005% (weight/volume) in ethanol): 38%
- % inhibition (lipochroman-6 at 0.01% (weight/volume) in ethanol): 95%
Structure (SMILES): COc1cc2c(cc1O)CCC(C)(C)O2 [Lipochroman-6, lipochroman-6]
